Laboratory results published in BigSolDB 2.1.

CC[C@H]1OC(=O)[C@H](C)[C@@H](O[C@H]2C[C@@](C)(OC)[C@@H](O)[C@H](C)O2)[C@H](C)[C@@H](O[C@@H]2O[C@H](C)C[C@H](N(C)C)[C@H]2O)[C@](C)(O)C[C@@H](C)C(=O)[C@H](C)[C@@H](O)[C@]1(C)O.N#CS.O.O
solubility (mole fraction)
Details	288.15 K	293.15 K	298.15 K	303.15 K	308.15 K	313.15 K	318.15 K
in ethanol	0.00426	0.00475	0.00525	0.00586	0.00679	0.00767	0.00856
in isopropanol	0.00104	0.00121	0.00136	0.00157	0.00175	0.002	0.00227
in methanol	0.0119	0.0128	0.0144	0.0158	0.0173	0.0189	0.0203
in n-propanol	0.00409	0.00437	0.00488	0.00567	0.00643	0.00725	0.00841
